Reference: US10870647B2, “Imidazopyridine derivative, method for preparing same, and pharmaceutical composition containing same as active ingredient for preventing or treating cancer” (DAEGU-GYEONGBUK MEDICAL INNOVATION FOUNDATION, priority 2016, dated 2020)

Columns and labels:
Test in all cases: Kinase selectivity, scanMAX Kinase assay panel (DiscoverX), % control at 1 uM
Assay type in all cases: binding
[1] = biological target: T1, scanMAX Kinase assay panel (Homo sapiens, UniProt O00750); details: PIK3C2B; 1 uM; read-out: Percent Control (%)
T1 construct: purchased DiscoverX
Procedure, shortened: (§1)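 Compounds were tested at 1 uM in DMSO against each enzyme in the panel. Percent control was calculated as (compound − positive control)/(negative control − positive control) × 100, and a compound was scored active on a kinase when this value fell below 35.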

[2] = biological target: T2, scanMAX Kinase assay panel (Homo sapiens, UniProt P42345); details: MTOR; 1 uM; read-out: Percent Control (%)
T2 construct: purchased DiscoverX
Procedure, shortened: as §1

[3] = biological target: T3, scanMAX Kinase assay panel (Homo sapiens, UniProt Q96PY6); details: NEK1; 1 uM; read-out: Percent Control (%)
T3 construct: purchased DiscoverX
T3 sequence (Q96PY6 1-1258): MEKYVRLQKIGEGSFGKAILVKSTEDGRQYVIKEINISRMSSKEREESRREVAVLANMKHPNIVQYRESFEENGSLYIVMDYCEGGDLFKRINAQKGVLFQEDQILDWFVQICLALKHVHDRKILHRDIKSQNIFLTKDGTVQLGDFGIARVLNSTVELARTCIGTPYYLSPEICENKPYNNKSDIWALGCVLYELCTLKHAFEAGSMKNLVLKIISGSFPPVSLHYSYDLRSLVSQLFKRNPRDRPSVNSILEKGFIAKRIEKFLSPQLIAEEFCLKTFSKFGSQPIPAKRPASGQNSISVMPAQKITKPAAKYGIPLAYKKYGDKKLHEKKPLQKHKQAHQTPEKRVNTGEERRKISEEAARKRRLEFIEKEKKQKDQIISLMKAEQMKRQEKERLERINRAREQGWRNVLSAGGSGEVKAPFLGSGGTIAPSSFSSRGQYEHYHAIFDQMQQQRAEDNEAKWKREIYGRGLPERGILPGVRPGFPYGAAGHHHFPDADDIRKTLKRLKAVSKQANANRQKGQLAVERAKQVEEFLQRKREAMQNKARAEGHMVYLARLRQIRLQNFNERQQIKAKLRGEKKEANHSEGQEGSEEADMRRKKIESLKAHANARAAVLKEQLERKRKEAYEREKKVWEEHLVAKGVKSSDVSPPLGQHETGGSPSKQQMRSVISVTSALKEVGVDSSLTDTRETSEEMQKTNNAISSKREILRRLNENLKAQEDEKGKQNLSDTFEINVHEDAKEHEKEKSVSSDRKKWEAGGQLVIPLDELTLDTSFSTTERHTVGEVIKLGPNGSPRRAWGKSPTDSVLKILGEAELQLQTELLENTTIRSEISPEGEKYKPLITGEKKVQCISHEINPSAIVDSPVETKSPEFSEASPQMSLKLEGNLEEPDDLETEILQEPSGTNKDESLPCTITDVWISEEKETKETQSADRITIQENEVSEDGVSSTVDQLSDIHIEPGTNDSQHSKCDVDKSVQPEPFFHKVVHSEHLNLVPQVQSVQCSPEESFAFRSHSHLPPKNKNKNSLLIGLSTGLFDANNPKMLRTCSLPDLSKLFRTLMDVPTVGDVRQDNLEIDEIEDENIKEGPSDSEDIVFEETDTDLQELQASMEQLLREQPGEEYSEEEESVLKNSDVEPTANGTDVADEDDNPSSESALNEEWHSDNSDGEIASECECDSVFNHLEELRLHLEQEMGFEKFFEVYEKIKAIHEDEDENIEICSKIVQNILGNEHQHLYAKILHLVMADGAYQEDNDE
Procedure, shortened: as §1

[4] = biological target: T4, scanMAX Kinase assay panel (Homo sapiens, UniProt Q8IVH8); details: MAP4K3; 1 uM; read-out: Percent Control (%)
T4 construct: purchased DiscoverX
T4 sequence (Q8IVH8 1-894): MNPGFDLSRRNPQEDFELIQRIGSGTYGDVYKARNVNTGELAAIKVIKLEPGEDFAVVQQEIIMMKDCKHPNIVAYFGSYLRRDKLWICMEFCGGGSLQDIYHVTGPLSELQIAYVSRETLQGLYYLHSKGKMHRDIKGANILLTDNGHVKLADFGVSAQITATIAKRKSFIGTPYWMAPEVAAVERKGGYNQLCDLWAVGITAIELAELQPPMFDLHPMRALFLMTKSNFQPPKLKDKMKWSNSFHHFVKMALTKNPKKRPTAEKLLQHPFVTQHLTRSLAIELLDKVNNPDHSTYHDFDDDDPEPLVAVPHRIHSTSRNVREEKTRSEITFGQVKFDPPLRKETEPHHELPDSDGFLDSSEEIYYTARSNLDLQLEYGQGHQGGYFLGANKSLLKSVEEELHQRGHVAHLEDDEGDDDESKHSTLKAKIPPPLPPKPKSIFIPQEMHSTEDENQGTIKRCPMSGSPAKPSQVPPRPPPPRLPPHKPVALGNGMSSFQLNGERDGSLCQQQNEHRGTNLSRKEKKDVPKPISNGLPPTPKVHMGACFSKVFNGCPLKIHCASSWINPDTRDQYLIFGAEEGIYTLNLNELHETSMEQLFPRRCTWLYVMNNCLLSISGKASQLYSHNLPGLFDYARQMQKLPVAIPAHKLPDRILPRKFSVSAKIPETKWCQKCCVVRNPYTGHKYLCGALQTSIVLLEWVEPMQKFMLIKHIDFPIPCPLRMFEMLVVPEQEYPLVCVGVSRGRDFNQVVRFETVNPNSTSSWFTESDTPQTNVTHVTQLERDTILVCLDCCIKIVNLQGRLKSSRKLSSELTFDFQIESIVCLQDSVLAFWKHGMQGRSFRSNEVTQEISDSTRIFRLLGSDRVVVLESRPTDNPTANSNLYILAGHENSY
Procedure, shortened: as §1

T1 sequence (O00750 whole entry): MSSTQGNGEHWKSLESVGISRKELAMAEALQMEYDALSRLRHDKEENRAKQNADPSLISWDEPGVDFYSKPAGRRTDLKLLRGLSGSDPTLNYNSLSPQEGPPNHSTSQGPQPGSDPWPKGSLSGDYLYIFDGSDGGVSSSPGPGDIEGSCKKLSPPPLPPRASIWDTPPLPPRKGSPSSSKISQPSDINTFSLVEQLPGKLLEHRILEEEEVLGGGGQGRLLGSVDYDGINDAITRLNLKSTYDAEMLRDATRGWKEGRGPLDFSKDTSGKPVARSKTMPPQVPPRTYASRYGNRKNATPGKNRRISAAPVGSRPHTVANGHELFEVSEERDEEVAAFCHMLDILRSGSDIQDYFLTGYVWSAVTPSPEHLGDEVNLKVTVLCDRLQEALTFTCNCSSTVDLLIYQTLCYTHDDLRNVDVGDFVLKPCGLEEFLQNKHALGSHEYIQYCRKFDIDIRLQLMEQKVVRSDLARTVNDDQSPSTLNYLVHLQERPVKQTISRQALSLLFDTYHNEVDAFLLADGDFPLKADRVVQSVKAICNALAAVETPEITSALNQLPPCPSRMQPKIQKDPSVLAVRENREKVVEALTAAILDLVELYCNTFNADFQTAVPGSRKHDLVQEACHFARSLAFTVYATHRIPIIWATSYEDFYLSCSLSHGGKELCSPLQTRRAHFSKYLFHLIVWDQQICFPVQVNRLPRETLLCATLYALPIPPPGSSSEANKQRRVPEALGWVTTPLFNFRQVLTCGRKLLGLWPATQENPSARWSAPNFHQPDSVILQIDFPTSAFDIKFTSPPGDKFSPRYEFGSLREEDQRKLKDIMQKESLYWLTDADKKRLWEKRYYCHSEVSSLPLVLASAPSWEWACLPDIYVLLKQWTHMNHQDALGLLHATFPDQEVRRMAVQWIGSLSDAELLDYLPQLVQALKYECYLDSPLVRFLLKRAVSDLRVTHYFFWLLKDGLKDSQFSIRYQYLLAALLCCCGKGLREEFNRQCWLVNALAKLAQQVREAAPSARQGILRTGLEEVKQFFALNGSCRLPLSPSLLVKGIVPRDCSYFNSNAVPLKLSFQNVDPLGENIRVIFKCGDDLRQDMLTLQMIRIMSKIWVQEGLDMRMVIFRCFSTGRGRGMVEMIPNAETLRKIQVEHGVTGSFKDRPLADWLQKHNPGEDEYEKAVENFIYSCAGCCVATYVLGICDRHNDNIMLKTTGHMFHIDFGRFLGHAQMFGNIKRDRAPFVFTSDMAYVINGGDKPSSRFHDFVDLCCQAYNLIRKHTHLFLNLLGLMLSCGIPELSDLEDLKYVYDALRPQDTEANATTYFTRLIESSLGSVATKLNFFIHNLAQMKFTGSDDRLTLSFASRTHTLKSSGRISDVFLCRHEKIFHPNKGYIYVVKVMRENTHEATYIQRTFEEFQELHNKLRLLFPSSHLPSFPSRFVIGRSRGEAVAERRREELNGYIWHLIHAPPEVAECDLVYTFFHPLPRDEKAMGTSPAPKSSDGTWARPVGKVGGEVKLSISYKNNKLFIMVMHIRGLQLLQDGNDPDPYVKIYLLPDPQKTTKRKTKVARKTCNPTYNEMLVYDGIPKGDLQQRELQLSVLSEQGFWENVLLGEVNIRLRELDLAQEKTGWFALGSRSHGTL

## Cc1ccc(C(=O)Nc2ccc(CN3CCN(C)CC3)c(C(F)(F)F)c2)cc1C#Cc1cnc2c(Nc3cnn(C)c3)cccn12 [Example 1, 4-methyl-3-((8-((1-methyl-1H-pyrazol-4-yl)amino)imidazo[1,2-a]pyridin-3-yl)ethynyl)-N-(4-((4-methylpiperazin-1-yl)methyl)-3-(trifluoromethyl)phenyl)benzamide]
[1]
  remaining binding at 1 µM: 100%
[2]
  remaining binding at 1 µM: 77%
[3]
  remaining binding at 1 µM: 52%
[4]
  remaining binding at 1 µM: 25%

## Cc1cn(-c2cc(NC(=O)c3ccc(C)c(C#Cc4cnc5c(Nc6cnn(C)c6)cccn45)c3)cc(C(F)(F)F)c2)cn1 [Example 12, 4-methyl-N-(3-(4-methyl-1H-imidazol-1-yl)-5-(trifluoromethyl)phenyl)-3-((8-((1-methyl-1H-pyrazol-4-yl)amino)imidazo[1,2-a]pyridin-3-yl)ethynyl)benzamide]
[1]
  remaining binding at 1 µM: 91%
[2]
  remaining binding at 1 µM: 66%
[3]
  remaining binding at 1 µM: 96%
[4]
  remaining binding at 1 µM: 66%

## Cc1ccc(NC(=O)C2(C(=O)Nc3ccc(F)cc3)CC2)cc1C#Cc1cnc2c(Nc3cnn(C(C)C)c3)cccn12 [Example 78]
[1]
  remaining binding at 1 µM: 100%
[2]
  remaining binding at 1 µM: 91%
[3]
  remaining binding at 1 µM: 100%
[4]
  remaining binding at 1 µM: 100%
